Like-named read-outs stand apart in the source and are kept apart here.
Tests used:
[1] = target: T. brucei N-myristoyl transferase (Trypanosoma brucei brucei (strain 927/4 GUTat10.1), UniProt Q388H8); experiment: biochemical; assay type: biochemical
[2] = tested on: Trypanosome (T. brucei brucei); experiment: In-vitro antitrypanosomal efficacy assay (cell growth, resazurin); assay type: cell-based
Description: To column 12, 200 μl media was added to provide a no cells control. Plates were then incubated at 37° C. in an atmosphere of 5% CO2 for 69 hours, before the addition of 20 μl of 500 μM rezasurin solution, and a further incubation period of 4 hours. […] Concentration effect curves were fitted using non-linear regression using XLFit 4.2 and EC50 values determined.

[3] = value printed without enzyme tag in the NMT Enzyme column (taken as T. brucei NMT), read-out: IC50 (μM) NMT Enzyme
[4] = value with no enzyme tag in the cell, taken as T. brucei NMT, read-out: IC50 (μM) NMT Enzyme
[5] = T. brucei NMT, value without parentheses, read-out: IC50 (μM) NMT Enzyme (T. brucei NMT)
[6] = T. brucei brucei, blood stream form, variant 221

Sequence of T. brucei N-myristoyl transferase (Q388H8 1-446): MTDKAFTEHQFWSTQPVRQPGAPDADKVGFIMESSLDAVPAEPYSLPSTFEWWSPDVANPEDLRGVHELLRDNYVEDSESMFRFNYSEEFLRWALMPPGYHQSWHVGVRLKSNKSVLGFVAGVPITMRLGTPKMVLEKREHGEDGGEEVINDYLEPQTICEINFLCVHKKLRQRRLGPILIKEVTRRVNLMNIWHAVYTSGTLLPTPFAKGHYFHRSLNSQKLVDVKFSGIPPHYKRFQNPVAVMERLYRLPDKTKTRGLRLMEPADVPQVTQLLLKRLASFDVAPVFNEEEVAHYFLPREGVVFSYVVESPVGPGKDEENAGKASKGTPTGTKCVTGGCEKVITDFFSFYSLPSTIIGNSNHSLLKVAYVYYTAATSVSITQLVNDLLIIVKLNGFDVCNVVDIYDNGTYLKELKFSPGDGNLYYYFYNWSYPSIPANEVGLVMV

Compound	IC50 [1, 3] [µM]	ED50 (μM) T. brucei ([2]; T. brucei cell growth) [µM]	IC50 [1, 4] [µM]	IC50 [1, 5] [µM]	ED50 (μM) T. brucei [2, 6] [µM]
Cc1nn(C)c(C)c1N[S+](=O)([O-])c1sc2ccc(F)cc2c1C [DDD73221]	6.6	>1	–	–	–
Cc1nn(C)c(C)c1N[S+](=O)([O-])c1ccc(NCc2ccc3[nH]ccc3c2)nc1 [DDD73332]	0.34	3.2	–	–	–
COc1cc(C)c([S+](=O)([O-])Nc2c(C)n[nH]c2C)c(C)c1C [DDD71601]	> 100	>1	–	–	–
Cc1nn(C)c(C)c1N[S+](=O)([O-])c1ccc(NCCCN2CCN(C)CC2)nc1 [DDD85627]	0.12	0.62	–	–	–
Cc1nn(C)c(C)c1N[S+](=O)([O-])c1ccc(NCCN2CCN(C(=O)OC(C)(C)C)CC2)nc1 [DDD86310]	–	>1	1	–	–
COc1cc(OC)cc(-c2cc(Cl)c([S+](=O)([O-])Nc3c(C)nn(C)c3C)c(Cl)c2)c1 [DDD73321]	4.3	>1	–	–	–
COc1ccc(SCc2ccc([S+](=O)([O-])Nc3c(C)nn(C)c3C)cc2)cc1OC [DDD85604]	3.3	>1	–	–	–
Cc1nn(C)c(C)c1N[S+](=O)([O-])c1ccc(NCCN2CCN(C)CC2c2ccccc2)nc1 (stereo not shown) [DDD86304]	–	>1	1	–	–
Cc1nn(C)c(C)c1N[S+](=O)([O-])c1ccc(NCc2cccc(N(C)C)c2)nc1 [DDD73320]	2.6	16.3	–	–	–
Cc1c(N[S+](=O)([O-])c2ccc(CCCCC3CCN(C)CC3)cc2)c(CC(C)C)nn1C [DDD100162]	–	–	–	0.01	0.093
Cc1nn(C)c(C)c1N[S+](=O)([O-])c1ccc(NC(CO)c2ccccc2)nc1 (stereo not shown) [DDD73333]	> 100	>1	–	–	–
CC(=O)Nc1cc(C)c([S+](=O)([O-])Nc2c(C)nn(C)c2C)s1 [DDD73219]	69	>1	–	–	–
Cc1nn(C)c(C)c1N[S+](=O)([O-])c1ccc(CNC(=O)c2ccccc2)s1 [DDD73238]	0.63	6.9	–	–	–
COc1cc(C)c([S+](=O)([O-])Nc2cccnc2C)c(C)c1C [DDD71279]	10	>1	–	–	–
COc1cc(C)c([S+](=O)([O-])Nc2ccncn2)c(C)c1C [DDD71295]	30	>1	–	–	–
Cc1nn(C)c(C)c1N(CCCO)[S+](=O)([O-])c1ccc(-c2ccnc(N3CCNCC3)c2)cc1 [DDD87755, N-(3-Hydroxy-propyl)-4-(2-piperazin-1-yl-pyridin-4-yl)-N-(1,3,5-trimethyl-1H-pyrazol-4-yl)-benzenesulfonamide]	–	0.98	0.05	–	–
Cc1ncccc1N[S+](=O)([O-])c1ccc(NCc2ccc3[nH]ccc3c2)nc1 [DDD85611]	7.2	>1	–	–	–
Cc1nn(C)c(C)c1N[S+](=O)([O-])c1ccc(-c2cccc(CCN(C)C)c2)cc1 [DDD90106]	–	0.251	0.024	–	–
Cc1nn(C)c(C)c1N[S+](=O)([O-])c1ccc(NCCCN2CCN(Cc3ccccc3)CC2)nc1 [DD86299]	–	>1	1	–	–
Cc1nn(C)c(C)c1N[S+](=O)([O-])c1ccc(CNc2ccc(Oc3ccccc3)cc2)cc1 [DDD73502]	4.8	>1	–	–	–

Compound	IC50 [1, 3] [µM]	ED50 (μM) T. brucei ([2]; T. brucei cell growth) [µM]	IC50 [1, 4] [µM]	IC50 [1, 5] [µM]	ED50 (μM) T. brucei [2, 6] [µM]
Cc1nn(C)c(C)c1N[S+](=O)([O-])c1ccc(C#N)cc1 [DDD71238]	32.6	>1	–	–	–
Cc1nn(C)c(C)c1N[S+](=O)([O-])c1ccc(NCCCN(C)C)nc1 [DDD85629]	2.4	38.0	–	–	–
Cc1nn(C)c(C)c1N[S+](=O)([O-])c1cc([S+](=O)([O-])c2ccccc2)cs1 [DDD73237]	10.4	>1	–	–	–
COc1cc(C)c([S+](=O)([O-])Nc2ccncc2)c(C)c1C [DDD71280]	> 100	>1	–	–	–
CNCCNc1cc(-c2cc(Cl)c([S+](=O)([O-])Nc3c(C)nn(C)c3C)c(Cl)c2)ccn1 [DDD86297, 2,6-Dichloro-4-[2-(2-methylamino-ethylamino)-pyridin-4-yl]-N-(1,3,6-trimethyl-1H-pyrazol-4-yl)-benzenesulfonamide]	–	>1	1	–	–
Cc1nn(C)c(C)c1N[S+](=O)([O-])c1ccc(CSc2ccc3ccccc3c2)cc1 [DDD73516]	47.6	>1	–	–	–
Cc1nn(C)c(C)c1N[S+](=O)([O-])c1ccc(NCCO)nc1 [DDD86293]	–	>1	1	–	–
COc1cc(C)c([S+](=O)([O-])Nc2c(C)nn(C)c2N2CCOCC2)c(C)c1C [DDD73271]	> 100	>1	–	–	–
COc1cc(C)c([S+](=O)([O-])Nc2c(C)cc(C)cc2C)c(C)c1C [DDD71645]	> 100	>1	–	–	–
COc1cc(C)c([S+](=O)([O-])Nc2cc[nH]n2)c(C)c1C [DDD71630]	> 100	>1	–	–	–
Cc1nn(C)c(C)c1N[S+](=O)([O-])c1ccc(Cn2ccnc2)cc1 [DDD73232]	1.9	18.6	–	–	–
Cc1nn(C)c(C)c1N[S+](=O)([O-])c1ccc(CN2C(=O)CSC2=O)cc1 [DDD73243]	5.8	>1	–	–	–
Cc1nn(C)c(C)c1N[S+](=O)([O-])c1ccc(NCCCc2ccccc2)nc1 [DDD73327]	2.8	>1	–	–	–
Cc1nn(C)c(C)c1N[S+](=O)([O-])c1ccc2c(c1)CCC2 [DDD71253]	5.6	>1	–	–	–
COc1cc([S+](=O)([O-])Nc2c(C)nn(C)c2C)ccc1NC(C)=O [DDD71623]	42	>1	–	–	–
CCCNCc1cccc(-c2ccc([S+](=O)([O-])Nc3c(CC(C)C)nn(C)c3C)cc2)c1 [DDD100800]	–	–	–	0.006	0.052
COc1cc(NCc2ccc([S+](=O)([O-])Nc3c(C)nn(C)c3C)cc2)cc(OC)c1OC [DDD73501]	19	>1	–	–	–
Cc1nn(C)c(C)c1N[S+](=O)([O-])c1ccc(CSc2ccc(Cl)cc2Cl)cc1 [DDD85610]	61.6	>1	–	–	–
COc1cc(C)c([S+](=O)([O-])Nc2c(C)nn(C(C)C)c2C)c(C)c1C [DDD73497]	> 100	>1	–	–	–
Cc1nn(C)c(C)c1N[S+](=O)([O-])c1ccc([S+](C)(=O)[O-])cc1 [DDD73241]	4.2	>1	–	–	–

Compound	IC50 [1, 3] [µM]	ED50 (μM) T. brucei ([2]; T. brucei cell growth) [µM]	IC50 [1, 4] [µM]	IC50 [1, 5] [µM]	ED50 (μM) T. brucei [2, 6] [µM]
Cc1nn(C)c(C)c1N[S+](=O)([O-])c1cccc2c(N(C)C)cccc12 [DDD73240]	1.6	>1	–	–	–
Cc1nn(C)c(C)c1N[S+](=O)([O-])c1ccc(CNc2ccncn2)cc1 [DDD73504]	4.2	>1	–	–	–
Cc1nn(C)c(C)c1N[S+](=O)([O-])c1ccc(CNc2ccccc2)cc1 [DDD73509]	3.8	>1	–	–	–
Cc1nn(C)c(C)c1N(CCO)[S+](=O)([O-])c1c(Cl)cc(Br)cc1Cl [DDD85607]	1.1	7.1	–	–	–
Cc1nn(C)c(C)c1N(CC1CC1)[S+](=O)([O-])c1c(Cl)cc(Br)cc1Cl [DDD85625]	0.67	4.6	–	–	–
Cc1nc(-c2ccc([S+](=O)([O-])Nc3c(C)nn(C)c3C)cc2)cs1 [DDD71278]	12.1	>1	–	–	–
Cc1nn(C)c(C)c1N[S+](=O)([O-])c1ccc(NCc2ccc3c(c2)OCO3)nc1 [DDD73326]	1.4	>1	–	–	–
Cc1c(N[S+](=O)([O-])c2c(Cl)cc(CCCC3CCN(C)CC3)cc2Cl)c(CC(C)C)nn1C [DDD99743]	–	0.005	0.003	–	–
Cc1nn(C)c(C)c1N[S+](=O)([O-])c1ccc(-c2cc(C(F)(F)F)n(C)n2)s1 [DDD73242]	32	>1	–	–	–
CCCn1cc(N[S+](=O)([O-])c2c(C)cc(OC)c(C)c2C)nn1 [DDD73269]	> 100	>1	–	–	–
Cc1nn(C)c(C)c1N[S+](=O)([O-])c1ccc(CNc2noc(C)c2C)cc1 [DDD73510]	26.9	>1	–	–	–
CC(=O)N1CCc2cc([S+](=O)([O-])Nc3c(C)nn(C)c3C)ccc21 [DDD71237]	8.8	>1	–	–	–
Cc1nn(C)c(C)c1N[S+](=O)([O-])c1ccc(-c2ccnc(N3CCNC(C(C)C)C3)c2)cc1 (stereo not shown) [DDD88549]	–	0.11	–	–	–
Cc1nn(C)c(C)c1N(C(F)F)[S+](=O)([O-])c1c(Cl)cc(CCCCCCn2ccnc2C)cc1Cl [DDD100795]	–	–	–	–	0.005
CCN(c1c(C)nn(C)c1C)[S+](=O)([O-])c1c(Cl)cc(Br)cc1Cl [DDD85637]	–	3.2	–	–	–
Cc1nn(C)c(C)c1N[S+](=O)([O-])c1ccc(NCCCN2CCC(N(C)C)C2)nc1 (stereo not shown) [DDD86300]	–	1.73	–	–	–
Cc1nn(C)c(C)c1N[S+](=O)([O-])c1ccc(CCCOC2CCN(C)CC2)cc1 [DDD99820]	–	0.020	–	–	–
Cc1nn(C)c(C)c1N[S+](=O)([O-])c1ccc(C#CCN2CCN(C)CC2)cc1 [DDD87999, 4-[3-(4-Methyl-piperazin-1-yl)-prop-1-ynyl]-N-(1,3,5-trimethyl-1H-pyrazol-4-yl)-benzenesulfonamide]	–	>1	–	–	–
Cc1nn(C)c(C)c1N[S+](=O)([O-])c1ccc(-c2cccc(CN3CCNCC3)c2)cc1 [DDD86317, 3′-piperazin-1-ylmethyl-biphenyl-4-sulfonic acid (1,3,5-trimethyl-1H-pyrazol-4-yl)-amide]	–	0.02	–	–	–
Cc1nn(C)c(C)c1N[S+](=O)([O-])c1ccc(CCCCC2CCNCC2)cc1 [DDD99760]	–	0.010	–	–	–

— patent US9156811B2 (priority 2008, dated 2015)
